Test results published in PubChem BioAssay (NCI).
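Where inhibition never reached the appropriate level, the endpoint shown equals the highest concentration tested. Otherwise, values were interpolated linearly from a five-concentration, 48-hour dose response in 96-well plates. TGI is the concentration that stops growth completely.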

How the values were obtained:
Test in all cases: NCI tumour cell line growth inhibition, 48 h
T-47D breast = test system: T-47D breast
HOP-92 NSCLC = test system: HOP-92 NSCLC
NCI-H23 lung = test system: NCI-H23 lung
SN12C renal = test system: SN12C renal
MDA-MB-231 breast = test system: MDA-MB-231 breast
HCC-2998 colon = test system: HCC-2998 colon
UACC-62 melanoma = test system: UACC-62 melanoma
UO-31 renal = test system: UO-31 renal
RPMI-8226 leukemia = test system: RPMI-8226 leukemia
NCI-H226 lung = test system: NCI-H226 lung
SF-268 CNS = test system: SF-268 CNS
HOP-62 NSCLC = test system: HOP-62 NSCLC
UACC-257 melanoma = test system: UACC-257 melanoma
SF-295 CNS = test system: SF-295 CNS
NCI/ADR-RES ovarian = test system: NCI/ADR-RES ovarian
OVCAR-5 ovarian = test system: OVCAR-5 ovarian
SW-620 colon = test system: SW-620 colon
HL-60(TB) leukemia = test system: HL-60(TB) leukemia
U251 CNS = test system: U251 CNS
SR leukemia = test system: SR leukemia
COLO 205 colon = test system: COLO 205 colon
IGROV1 ovarian = test system: IGROV1 ovarian
MCF7 breast = test system: MCF7 breast
OVCAR-3 ovarian = test system: OVCAR-3 ovarian
K-562 leukemia = test system: K-562 leukemia
HT29 colon = test system: HT29 colon
MALME-3M melanoma = test system: MALME-3M melanoma
HCT-15 colon = test system: HCT-15 colon
ACHN renal = test system: ACHN renal
EKVX NSCLC = test system: EKVX NSCLC
M14 melanoma = test system: M14 melanoma
NCI-H460 lung = test system: NCI-H460 lung
A498 renal = test system: A498 renal
CCRF-CEM leukemia = test system: CCRF-CEM leukemia
SK-MEL-28 melanoma = test system: SK-MEL-28 melanoma
TK-10 renal = test system: TK-10 renal
MOLT-4 leukemia = test system: MOLT-4 leukemia
786-0 renal = test system: 786-0 renal
SNB-75 CNS = test system: SNB-75 CNS
MDA-MB-435 = test system: MDA-MB-435
HCT-116 colon = test system: HCT-116 colon
OVCAR-4 ovarian = test system: OVCAR-4 ovarian
SK-OV-3 ovarian = test system: SK-OV-3 ovarian
PC-3 prostate = test system: PC-3 prostate
A549 NSCLC = test system: A549 NSCLC
SK-MEL-5 melanoma = test system: SK-MEL-5 melanoma
SNB-19 CNS = test system: SNB-19 CNS
OVCAR-8 ovarian = test system: OVCAR-8 ovarian
DU-145 prostate = test system: DU-145 prostate
MDA-N = test system: MDA-N
BT-549 breast = test system: BT-549 breast
RXF 393 renal = test system: RXF 393 renal
SK-MEL-2 melanoma = test system: SK-MEL-2 melanoma
SF-539 CNS = test system: SF-539 CNS
HS 578T breast = test system: HS 578T breast
KM12 colon = test system: KM12 colon
NCI-H522 lung = test system: NCI-H522 lung
CAKI-1 renal = test system: CAKI-1 renal
LOX IMVI melanoma = test system: LOX IMVI melanoma

Measured: TGI

COc1cc(CC(C)=O)cc(OC)c1
85.4 µM: SR leukemia
73.2 µM: MOLT-4 leukemia
76.9 µM: MDA-N
78.5 µM: HL-60(TB) leukemia
not listed: RXF 393 renal | SK-MEL-2 melanoma | SF-539 CNS | HS 578T breast | KM12 colon | NCI-H522 lung | CAKI-1 renal | LOX IMVI melanoma
> 100 µM: all other assays above

c1coc(-c2nccc3c2[nH]c2ccccc23)c1
33.5 µM: COLO 205 colon
95.8 µM: NCI-H226 lung
not listed: UO-31 renal | RPMI-8226 leukemia | SNB-75 CNS | BT-549 breast
> 100 µM: all other assays above

CN(c1ccccc1)S(=O)(=O)c1ccc([N+](=O)[O-])cc1
not listed: HOP-92 NSCLC | HCC-2998 colon | UACC-62 melanoma | IGROV1 ovarian | K-562 leukemia | A498 renal | CCRF-CEM leukemia | MOLT-4 leukemia | SNB-75 CNS | SK-OV-3 ovarian | SK-MEL-5 melanoma | HS 578T breast
> 100 µM: all other assays above

Cc1c(C(=O)O)n2c(=S)[nH]nc2c2ccccc12
not listed: MALME-3M melanoma | SNB-75 CNS | BT-549 breast
> 100 µM: all other assays above
